From PubChem BioAssay AID493118 (Broad Institute, 2011) come the findings set out here.

For the test, the system named is Vibrio harveyi MM32, AI-2 induced luminescence, 5 h. As to the kind of experiment: inhibitors of AI-2-induced luminescence in V. harveyi MM32, dose response, mechanism study for V. harveyi quorum sensing inhibitors, strain MM32, dry powder (AID 493118).
With `Cn1cnc(S(=O)(=O)Nc2ccc(OC(F)(F)F)cc2)c1`, the AC50 is 1950 nM.
The same measure for `C=Cn1c(C(=O)O)ccc1-c1ccc(CC)cc1`: 2140 nM; for `COc1cc(NC(=O)CN2C(=O)NC(c3ccccc3)(c3ccccc3)C2=O)cc(OC)c1`: 615 nM.
The same measure for `Cc1cccc(NS(=O)(=O)c2ccc(Oc3ccccc3)cc2)n1`: 898 nM.
The same measure for `CCc1ccc(S(=O)(=O)Nc2ccc(Br)cn2)cc1`: 1400 nM; for `O=C1C=C/C(=C/Br)O1`: 4330 nM.
